In PMC6387968, “An in vitro ADME and in vivo Pharmacokinetic Study of Novel TB-Active Decoquinate Derivatives” (Frontiers in Pharmacology, 2019):

Key:
[1] = physchem; assay type: physicochemical; settings: pH 7.4
Protocol: The plate was agitated for 2 h at 22°C and 500 rpm. […] The different layers were analyzed to obtain a logD value.

[2] = in vitro; assay type: in vitro ADME
Protocol: Compound solutions prepared in DMSO were diluted in phosphate buffer (final concentration = 1 μg/mL), and were spiked into human plasma and microsomal fractions (total volume = 1 mL). Aliquots were then transferred in duplicate to: (i) a final concentration plate that was immediately quenched with 23.6 ng/mL internal standard (IS, carbamazepine) in ACN, (ii) a degradation control, which was placed in a water bath at 37°C for 4 h, and (iii) ultracentrifuge tubes, which were centrifuged for 4 h at 37°C and 30 000 × g. All reactions were stopped by the addition of ACN containing 23.6 ng/mL carbamazepine. The samples were subjected to liquid chromatography-tandem mass spectrometry (LC-MS/MS) analysis on an AB Sciex 4000 Q Trap hybrid triple quadrupole linear ion-trap MS (AB Sciex, Framingham, MA, United States) coupled to an Agilent 1200 HPLC (Agilent) with a reverse-phase Gemini-C18 analytical column (5 μm, 50 mm × 2 mm; Phenomenex) at 35°C. Mobile phases comprised 0.1% FA in water, and 0.1% FA in ACN. The flow rate was 600 μL/min with a run time of 6 min. A gradient elution was employed (Table 2).

[3] = assay type: in vitro ADME; settings: pH 7.4
Protocol: The permeability of the compounds was assessed via a PAMPA using a 96-well multiscreen filter plate ([…]). The filter plate was coated with 5% hexadecane in hexane and was allowed to dry before starting the assay. Lucifer yellow was added to the apical side of the filter plate in each well containing test compound solutions prepared in DMSO. A solution of each compound was diluted into phosphate buffer at pH 7.4 (final concentration = 1 μg/mL) and was added to the apical portion of the donor plate. The acceptor plate was filled with blank buffer (pH 7.4). The plates were slotted into each other and agitated at 80 rpm for 4 h at 22°C. Samples from donor and theoretical equilibrium wells were matrix-matched with blank phosphate buffer at pH 7.4. Samples were treated with ACN containing IS (carbamazepine, 23.6 ng/mL) and were submitted for LC-MS/MS analysis on an Agilent Rapid Resolution HPLC and AB Sciex 4500 MS. […] [Wohnsland and Faller, 2001]; [Jung et al., 2006]). where, VA is the volume of the acceptor compartment (0.25 cm^3), VD is the volume of the donor compartment (0.15 cm^3), A is the accessible filter area (0.024 cm^2), and t is the incubation time (s). The peak areas of the samples were used to determine the Papp of each compound using Eq. 3. Papp=C × -ln(1-Acceptor […]/Donor […])

[4] = in vitro; assay type: in vitro ADME; settings: microsomes
Protocol: RMB041, -043, and -073 ([…]) prepared in DMSO were incubated separately with 530 μL mouse and human microsomes (0.4 mg/mL) at 37°C with the cofactor NADPH (1 mM). Compounds were assessed at 0 and 60 min. The reaction was stopped by the addition of ice-cold ACN containing IS (carbamazepine, 23.6 ng/mL). The samples were analyzed via LC-MS/MS using the instrumentation and conditions described above. The in vitro half-life, intrinsic clearance rate, and hepatic extraction ratio were predicted using results from this assay in the following equations ([Obach, 1999]). Metabolic stability was assessed as the compound’s depletion from a starting concentration of […] over 1 h in mouse and human microsomal fractions. The in vitro half-life can be predicted from this assay. The linear regression from a graph relating natural logarithmic percentage of the compound remaining versus the incubation time was used to calculate the half-life, CLint, and EH.

[5] = for Autosampler stability (48 h), Low / Stability, murine whole-blood (-80 °C freeze-thaw), Low / Stability, murine whole-blood (ice, 2 h), Low: 10 ng/mL; for Autosampler stability (48 h), High / IV formulation stability, High / Oral formulation stability, High / Stability, murine whole-blood (-80 °C freeze-thaw), High / Stability, murine whole-blood (ice, 2 h), High: 4000 ng/mL; for IV formulation stability, High / Oral formulation stability, High / Stability, murine whole-blood (ice, 2 h), Low / Stability, murine whole-blood (ice, 2 h), High: 2 h; for Stability, murine whole-blood (-80 °C freeze-thaw), Low / Stability, murine whole-blood (-80 °C freeze-thaw), High / Stability, murine whole-blood (ice, 2 h), Low / Stability, murine whole-blood (ice, 2 h), High: mouse
Protocol: The LC-MS/MS method used was partially validated by assessing recovery from mouse whole-blood, bench-top stability (3 h), auto-sampler stability (48 h), formulation stability (oral and IV, 2 h), freeze-thaw stability (3 cycles), and matrix effects (details in Supplementary Material). Partial method validation, comprising several tests to determine whether the compounds were stable in each possible experimental situation involved with sample collection, storage, and processing, was performed. These tests included: (i) compound stability in mouse whole-blood (on ice and at -80°C), (ii) compound stability in the autosampler, (iii) compound stability in oral and intravenous formulations, (iv) matrix effects (ME), and (v) compound recovery. In this study, stability is reported as a percentage, reflecting the stability of the compound in relation to a fresh sample prepared just before analysis.

[6] = system: Chinese hamster ovarian (CHO) cell-lines; settings: cited from earlier work
[7] = human, plasma, Plasma protein (fraction unbound)
[8] = human, plasma, percentage plasma protein binding

| Compound | logD [1] | fraction unbound at 4 h, 1 μg/mL ([2]; human, microsomes) | fraction unbound at 4 h, 1 μg/mL [2, 7] | fraction unbound at 4 h, 1 μg/mL [2, 8] | fraction unbound at 4 h, 1 μg/mL ([2]; microsomes) | PAMPA Log Papp [3] | half-life at 0.1 M [4] [h] | microsomal CLint at 0.1 M [4] [µL/min/mg] | Autosampler stability (48 h), Low [5] [%] | Autosampler stability (48 h), High [5] [%] | IV formulation stability, High [5] [%] | Oral formulation stability, High [5] [%] | Stability, murine whole-blood (-80 °C freeze-thaw), Low [5] [%] | Stability, murine whole-blood (-80 °C freeze-thaw), High [5] [%] | Stability, murine whole-blood (ice, 2 h), Low [5] [%] | Stability, murine whole-blood (ice, 2 h), High [5] [%] | IC50 [6] [µM] |
| --- | --- | --- | --- | --- | --- | --- | --- | --- | --- | --- | --- | --- | --- | --- | --- | --- | --- |
| CCCCCCCCCCOc1cc2c(=O)c(C(=O)NCCOCCO)cn(CC)c2cc1OCC [RMB041] | 0.48 | 0.053 | 0.1 | 0.104 | 0.06 | -4.8 | > 2.5 | < 20 | 92.1 | 94.1 | 90.3 | 98.0 | 99.2 | 98.7 | 89.2 | 91.2 | 20 |
| CCCCCCCCCCOc1cc2c(=O)c(C(=O)NCCNCCO)cn(CC)c2cc1OCC [RMB043] | 0.84 | 0.053 | 0.23 | 0.221 | 0.06 | -4.8 | < 1.67 | < 110 | 99.8 | 99.1 | 93.1 | 89.0 | 91.3 | 92.5 | 102.4 | 109.0 | 80 |
| CCCCCCCCCCOc1cc2c(=O)c(C(=O)NCCOCCO)cn(CCO)c2cc1OCC [RMB073] | 0.36 | 0.114 | 0.16 | 0.156 | 0.11 | -4.5 | > 2.5 | < 20 | 105.3 | 102.0 | 98.8 | 89.3 | 89.5 | 97.3 | 87.6 | 92.3 | 33.9 |
